In US9681664B2, “Macrocyclic picolinamides as fungicides” (Dow Agrosciences LLC, priority 2012, dated 2017) one finds pest or weed control data, which are given here for 28 compounds.

Like-named read-outs stand apart in the source and are kept apart here.

Assay [1] has as its system Mycosphaerella graminicola; Anamorph: Septoria tritici. The experiment in a line: Leaf blotch of wheat (SEPTTR) disease control on wheat seedlings. Conditions: Zymoseptoria tritici, High volume application, 100 ppm. The class given is in vivo. The gist of the method:
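Protective or curative format: Septoria tritici inoculation either preceded or followed fungicide application to first-leaf Yuma wheat. Severity scored 0–100%; control expressed versus untreated.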

The test system of assay [2] is Puccinia triticina; Synonym: Puccinia recondite f. sp. tritici. The experiment in a line: Wheat brown rust (PUCCRT) disease control on wheat seedlings. Type of assay: in vivo. Conditions: Puccinia triticina, High volume application, 100 ppm. The gist of the method: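 Yuma wheat grown to first fully emerged leaf was inoculated with Puccinia triticina spore suspension either before or after fungicide treatment, held overnight at 22° C. and 100% RH in darkness, then kept at 24° C. Fungicide applied by booth sprayer to run-off (acetone/water, 110 ppm Triton X-100) or as EC by track spray.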

Where [3] appears, read: 24 h, 1 Day Protectant, read-out: SEPTTR 1DP disease control.
Where [4] appears, read: 72 h, 3 Day Curative, read-out: SEPTTR 3DC disease control.
Setting [5] is: 24 h, 1 Day Protectant, read-out: PUCCRT 1DP disease control.
The mark [6] stands for this setting: 72 h, 3 Day Curative, read-out: PUCCRT 3DC disease control.

On to `CCCO[C@H]1CCC[C@H](NC(=O)c2nccc(OC)c2O)C(=O)O[C@@H](C)[C@@H]1Oc1ccccc1` [F127], for which the pest or weed control at 100 ppm in assay [1] (setting [3]), in assay [1] (setting [4]), in assay [2] (setting [5]) and in assay [2] (setting [6]) was 80 to 100% throughout.

In the case of `COc1ccnc(C(=O)N[C@H]2CCC[C@H](OCCCc3ccccc3)[C@@H](Oc3ccccc3)[C@H](C)OC2=O)c1O` [F128], the pest or weed control at 100 ppm was 80 to 100% in assay [1] (setting [3]), less than 0% in assay [1] (setting [4]), 80 to 100% in assay [2] (setting [5]) and 0 to 80% in assay [2] (setting [6]).

Take `COc1ccnc(C(=O)N[C@H]2CCC[C@H](OCCCC(F)(F)F)[C@@H](Oc3ccccc3)[C@H](C)OC2=O)c1O` [F129]: the pest or weed control at 100 ppm was 80 to 100% in assay [1] (setting [3]), less than 0% in assay [1] (setting [4]), 80 to 100% in assay [2] (setting [5]) and 80 to 100% in assay [2] (setting [6]).

As to `COc1ccnc(C(=O)N[C@H]2CCC[C@H](Oc3ccccc3)[C@@H](OCCCc3ccccc3)[C@H](C)OC2=O)c1OC(C)=O` [F131], the pest or weed control at 100 ppm in assay [1] (setting [3]), in assay [1] (setting [4]), in assay [2] (setting [5]) and in assay [2] (setting [6]) was 80 to 100% throughout.

On to `COc1ccnc(C(=O)N[C@H]2CCC[C@H](OCCCC(F)(F)F)[C@@H](Oc3ccccc3)[C@H](C)OC2=O)c1OCOC(C)=O` [F135], for which the pest or weed control at 100 ppm in assay [1] (setting [3]), in assay [1] (setting [4]), in assay [2] (setting [5]) and in assay [2] (setting [6]) was 80 to 100% each time.

Regarding `COc1ccnc(C(=O)N[C@H]2CCC[C@H](OCCCC(F)(F)F)[C@@H](Oc3ccccc3)[C@H](C)OC2=O)c1OCOC(=O)C(C)C` [F136], the pest or weed control at 100 ppm in assay [1] (setting [3]), in assay [1] (setting [4]), in assay [2] (setting [5]) and in assay [2] (setting [6]) was 80 to 100% each time.

In the case of `COc1ccnc(C(=O)N[C@H]2CCC[C@H](OCCCC(F)(F)F)[C@@H](Oc3ccccc3)[C@H](C)OC2=O)c1OC(C)=O` [F137], the pest or weed control at 100 ppm in assay [1] (setting [3]), in assay [1] (setting [4]), in assay [2] (setting [5]) and in assay [2] (setting [6]) was 80 to 100% throughout.

With `COc1ccnc(C(=O)N[C@H]2CCC[C@H](OC3CCCC3)[C@@H](OC(=O)C3CC3)[C@H](C)OC2=O)c1O` [F142], the pest or weed control at 100 ppm was in the range of 0 to 80% in assay [1] (setting [3]), 80 to 100% in assay [1] (setting [4]), 80 to 100% in assay [2] (setting [5]) and 80 to 100% in assay [2] (setting [6]).

`COc1ccnc(C(=O)N[C@H]2CCC[C@H](OC3CCCC3)[C@@H](OC(=O)C3CCCC3)[C@H](C)OC2=O)c1O` [F143]: the pest or weed control at 100 ppm in assay [1] (setting [3]) was 80 to 100%; in assay [1] (setting [4]), 0 to 80%; in assay [2] (setting [5]) it was 80 to 100%; in assay [2] (setting [6]), 80 to 100%.

`COc1ccnc(C(=O)N[C@H]2CCC[C@H](OC3CCCC3)[C@@H](OC(=O)C3CC3)[C@H](C)OC2=O)c1OCOC(C)=O` [F144]: the pest or weed control at 100 ppm in assay [1] (setting [3]), in assay [1] (setting [4]), in assay [2] (setting [5]) and in assay [2] (setting [6]) was 80 to 100% throughout.

In the case of `COc1ccnc(C(=O)N[C@H]2CCC[C@H](OC3CCCC3)[C@@H](OC(=O)C3CC3)[C@H](C)OC2=O)c1OCOC(=O)C(C)C` [F145], the pest or weed control at 100 ppm in assay [1] (setting [3]), in assay [1] (setting [4]), in assay [2] (setting [5]) and in assay [2] (setting [6]) was 80 to 100% throughout.

In the case of `COCCC(=O)Oc1c(OC)ccnc1C(=O)N[C@H]1CCC[C@H](OC2CCCC2)[C@@H](OCC(C)C)[C@H](C)OC1=O` [F146], the pest or weed control at 100 ppm in assay [1] (setting [3]), in assay [1] (setting [4]), in assay [2] (setting [5]) and in assay [2] (setting [6]) was 80 to 100% in each case.

Consider `COCCC(=O)Oc1c(OC)ccnc1C(=O)N[C@H]1CCC[C@H](OC2CCCC2)[C@@H](OC(=O)C2CC2)[C@H](C)OC1=O` [F147], for which the pest or weed control at 100 ppm in assay [1] (setting [3]), in assay [1] (setting [4]), in assay [2] (setting [5]) and in assay [2] (setting [6]) was 80 to 100% throughout.

Take `COc1ccnc(C(=O)N[C@H]2CCC[C@H](OC3CCCC3)[C@@H](OC(=O)C3CCCC3)[C@H](C)OC2=O)c1OCOC(C)=O` [F148]: the pest or weed control at 100 ppm in assay [1] (setting [3]), in assay [1] (setting [4]), in assay [2] (setting [5]) and in assay [2] (setting [6]) was 80 to 100% throughout.

On to `COc1ccnc(C(=O)N[C@H]2CCC[C@H](OCC(C)C)[C@@H](OC(=O)C3CCCC3)[C@H](C)OC2=O)c1O` [F149], for which the pest or weed control at 100 ppm in assay [1] (setting [3]) was in the range of 80 to 100%; in assay [1] (setting [4]), 0 to 80%; in assay [2] (setting [5]), 80 to 100%; in assay [2] (setting [6]), 80 to 100%.

As to `COc1ccnc(C(=O)N[C@H]2CCC[C@H](OCC(C)C)[C@@H](OC(=O)C3CCCC3)[C@H](C)OC2=O)c1OCOC(C)=O` [F150], the pest or weed control at 100 ppm in assay [1] (setting [3]), in assay [1] (setting [4]), in assay [2] (setting [5]) and in assay [2] (setting [6]) was 80 to 100% in each case.

With `COc1ccnc(C(=O)N[C@H]2CCC[C@H](OCC(C)C)[C@@H](OC(=O)C3CCCC3)[C@H](C)OC2=O)c1OC(C)=O` [F151], the pest or weed control at 100 ppm in assay [1] (setting [3]), in assay [1] (setting [4]), in assay [2] (setting [5]) and in assay [2] (setting [6]) was 80 to 100% each time.

Regarding `COCCC(=O)Oc1c(OC)ccnc1C(=O)N[C@H]1CCC[C@H](OCC(C)C)[C@@H](OC(=O)C2CCCC2)[C@H](C)OC1=O` [F152], the pest or weed control at 100 ppm in assay [1] (setting [3]), in assay [1] (setting [4]), in assay [2] (setting [5]) and in assay [2] (setting [6]) was 80 to 100% in each case.

As for `CCCO[C@H]1CCC[C@H](NC(=O)c2nccc(OC)c2O)C(=O)O[C@@H](C)[C@@H]1OC1CCCC1` [F153], the pest or weed control at 100 ppm in assay [1] (setting [3]), in assay [1] (setting [4]), in assay [2] (setting [5]) and in assay [2] (setting [6]) was 80 to 100% throughout.

For `COc1ccnc(C(=O)N[C@H]2CCC[C@H](OC(=O)C3CCCC3)[C@@H](OC3CCCC3)[C@H](C)OC2=O)c1O` [F156], the pest or weed control at 100 ppm in assay [1] (setting [3]), in assay [1] (setting [4]), in assay [2] (setting [5]) and in assay [2] (setting [6]) was 80 to 100% each time.

As for `COc1ccnc(C(=O)N[C@H]2CCC[C@H](OC(=O)C3CCCC3)[C@@H](OC3CCCC3)[C@H](C)OC2=O)c1OCOC(=O)C(C)C` [F157], the pest or weed control at 100 ppm in assay [1] (setting [3]), in assay [1] (setting [4]), in assay [2] (setting [5]) and in assay [2] (setting [6]) was 80 to 100% in each case.

On to `COc1ccnc(C(=O)N[C@H]2CCC[C@H](OC(=O)C3CCCC3)[C@@H](OC3CCCC3)[C@H](C)OC2=O)c1OCOC(C)=O` [F158], for which the pest or weed control at 100 ppm in assay [1] (setting [3]), in assay [1] (setting [4]), in assay [2] (setting [5]) and in assay [2] (setting [6]) was 80 to 100% each time.

Take `COc1ccnc(C(=O)N[C@H]2CCC[C@H](OC(=O)C3CCCC3)[C@@H](OC3CCCC3)[C@H](C)OC2=O)c1OC(C)=O` [F159]: the pest or weed control at 100 ppm in assay [1] (setting [3]), in assay [1] (setting [4]), in assay [2] (setting [5]) and in assay [2] (setting [6]) was 80 to 100% throughout.

Regarding `COc1ccnc(C(=O)N[C@H]2CCC[C@H](Oc3ccc(F)cc3)[C@@H](OC3CCCC3)[C@H](C)OC2=O)c1O` [F160], the pest or weed control at 100 ppm in assay [1] (setting [3]), in assay [1] (setting [4]), in assay [2] (setting [5]) and in assay [2] (setting [6]) was 80 to 100% in each case.

On to `COc1ccnc(C(=O)N[C@H]2CCC[C@H](Oc3ccc(F)cc3)[C@@H](OC3CCCC3)[C@H](C)OC2=O)c1OCOC(=O)C(C)C` [F161], for which the pest or weed control at 100 ppm in assay [1] (setting [3]), in assay [1] (setting [4]), in assay [2] (setting [5]) and in assay [2] (setting [6]) was 80 to 100% in each case.

As for `COc1ccnc(C(=O)N[C@H]2CCC[C@H](Oc3ccc(F)cc3)[C@@H](OC3CCCC3)[C@H](C)OC2=O)c1OCOC(C)=O` [F162], the pest or weed control at 100 ppm was in the range of 80 to 100% in assay [1] (setting [3]), 80 to 100% in assay [1] (setting [4]), 80 to 100% in assay [2] (setting [5]) and 0 to 80% in assay [2] (setting [6]).

Consider `COc1ccnc(C(=O)N[C@H]2CCC[C@H](OC3CCCC3)[C@@H](OCCCc3ccccc3)[C@H](C)OC2=O)c1O` [F163], for which the pest or weed control at 100 ppm in assay [1] (setting [3]) is 80 to 100%; in assay [1] (setting [4]), 0 to 80%; in assay [2] (setting [5]) it was 80 to 100%; in assay [2] (setting [6]) it was 80 to 100%.

For `CCCCCO[C@H]1[C@H](C)OC(=O)[C@@H](NC(=O)c2nccc(OC)c2O)CCC[C@@H]1OC1CCCC1` [F164], the pest or weed control at 100 ppm in assay [1] (setting [3]), in assay [1] (setting [4]), in assay [2] (setting [5]) and in assay [2] (setting [6]) was 80 to 100% in each case.
